These results are taken from ChEMBL document CHEMBL1909046, “DrugMatrix in vitro pharmacology data”.

For one data set, the target named is Platelet-activating factor receptor (Homo sapiens, UniProt P25105). As to the kind of experiment: biochemical. Type of data set: tissue-based. Conditions: platelet. Note: in other assays of this panel Not Active means under 50% inhibition at 10 µM.
Sequence of Platelet-activating factor receptor (P25105 whole entry): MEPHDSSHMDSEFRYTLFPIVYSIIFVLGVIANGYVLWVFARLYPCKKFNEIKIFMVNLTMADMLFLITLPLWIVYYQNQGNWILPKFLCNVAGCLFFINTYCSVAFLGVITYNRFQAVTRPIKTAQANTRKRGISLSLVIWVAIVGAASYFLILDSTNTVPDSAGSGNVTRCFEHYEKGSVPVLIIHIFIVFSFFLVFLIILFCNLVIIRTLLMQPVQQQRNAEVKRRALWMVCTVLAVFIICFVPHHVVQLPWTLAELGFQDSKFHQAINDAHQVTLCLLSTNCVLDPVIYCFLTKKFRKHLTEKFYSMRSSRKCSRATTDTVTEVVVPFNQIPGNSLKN
Regarding `COC(=O)C1=C(C)NC(C)=C(C(=O)OC)C1c1ccccc1[N+](=O)[O-]` [NIFEDIPINE], the IC50 (as a rule, the midpoint of a concentration-inhibition curve) is recorded as “Not Active”.

For `CN1CCN2c3ccccc3Cc3ccccc3C2C1` (centres undefined) [MIANSERIN], the IC50 result is given as “Not Active”.

For `CC(C)(O)c1ccccc1CC[C@@H](SCC1(CC(=O)O)CC1)c1cccc(/C=C/c2ccc3ccc(Cl)cc3n2)c1` [MONTELUKAST], the IC50 entry is listed as “Not Active”.

As for `COC(=O)[C@@H]1[C@H]2C[C@H]3c4[nH]c5ccccc5c4CCN3C[C@@H]2CC[C@@H]1O` [YOHIMBINE], the IC50 result is reported as “Not Active”.

For the compound `COc1ccc(CCN2CCC(Nc3nc4ccccc4n3Cc3ccc(F)cc3)CC2)cc1` [ASTEMIZOLE], the half-inhibitory concentration (IC50) entry is listed as “Not Active”.

With `CN(C)CCCN1c2ccccc2CCc2ccc(Cl)cc21` [CLOMIPRAMINE], the IC50 result is on record as “Not Active”.

The same data set, now with this note: read-out: IC50.
Consider `Clc1ccccc1C(c1ccccc1)(c1ccccc1)n1ccnc1` [CLOTRIMAZOLE], for which the IC50 was determined as 35000 nM.

Staying with this data set, now noted: read-out: Ki.
`Clc1ccccc1C(c1ccccc1)(c1ccccc1)n1ccnc1` [CLOTRIMAZOLE]: the Ki (as a rule, a dissociation constant, usually derived from enzyme kinetics or from competition with a known ligand) was 22600 nM.

The target of a further data set is T1, 3-hydroxy-3-methylglutaryl-coenzyme A reductase (Homo sapiens, UniProt P04035).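 Note: enzyme inhibition assay of HMG-CoA reductase using radiolabeled [14C]HMG-CoA as substrate; in other assays of this panel Not Active means under 50% inhibition at 10 µM.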
T1 sequence (P04035 whole entry): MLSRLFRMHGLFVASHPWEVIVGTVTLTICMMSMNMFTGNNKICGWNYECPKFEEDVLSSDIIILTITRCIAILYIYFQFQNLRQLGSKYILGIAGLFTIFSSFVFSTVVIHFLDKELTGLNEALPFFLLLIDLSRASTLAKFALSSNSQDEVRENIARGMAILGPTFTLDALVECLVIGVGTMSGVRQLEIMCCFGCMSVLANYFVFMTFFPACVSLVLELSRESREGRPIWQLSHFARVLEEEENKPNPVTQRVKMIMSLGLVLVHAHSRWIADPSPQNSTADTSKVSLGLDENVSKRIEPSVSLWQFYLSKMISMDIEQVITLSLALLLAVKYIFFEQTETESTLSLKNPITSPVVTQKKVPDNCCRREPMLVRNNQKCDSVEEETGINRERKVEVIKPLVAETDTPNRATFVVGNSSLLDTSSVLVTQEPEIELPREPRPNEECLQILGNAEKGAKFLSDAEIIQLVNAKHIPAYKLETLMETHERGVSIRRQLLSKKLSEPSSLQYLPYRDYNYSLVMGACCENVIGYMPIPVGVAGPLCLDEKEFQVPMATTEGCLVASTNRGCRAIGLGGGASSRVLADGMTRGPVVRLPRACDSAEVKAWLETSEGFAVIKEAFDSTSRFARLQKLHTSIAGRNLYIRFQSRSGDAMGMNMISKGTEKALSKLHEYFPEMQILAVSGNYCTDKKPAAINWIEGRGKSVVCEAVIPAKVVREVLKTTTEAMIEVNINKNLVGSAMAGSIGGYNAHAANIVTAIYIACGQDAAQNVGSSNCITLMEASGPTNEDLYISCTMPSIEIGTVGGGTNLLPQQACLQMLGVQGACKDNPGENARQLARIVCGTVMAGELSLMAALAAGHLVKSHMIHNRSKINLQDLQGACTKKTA
Experiment: not given
Details: species or system Escherichia coli.
Conditions: not given
Regarding `COC(=O)C1=C(C)NC(C)=C(C(=O)OC)C1c1ccccc1[N+](=O)[O-]` [NIFEDIPINE], the IC50 result is on record as “Not Active”.

In the case of `CN1CCN2c3ccccc3Cc3ccccc3C2C1` (centres undefined) [MIANSERIN], the IC50 result is listed as “Not Active”.

Take `Clc1ccccc1C(c1ccccc1)(c1ccccc1)n1ccnc1` [CLOTRIMAZOLE]: the IC50 entry is given as “Not Active”.

In the case of `CC(C)(O)c1ccccc1CC[C@@H](SCC1(CC(=O)O)CC1)c1cccc(/C=C/c2ccc3ccc(Cl)cc3n2)c1` [MONTELUKAST], the IC50 result is reported as “Not Active”.

`COC(=O)[C@@H]1[C@H]2C[C@H]3c4[nH]c5ccccc5c4CCN3C[C@@H]2CC[C@@H]1O` [YOHIMBINE]: the half-inhibitory concentration (IC50) result is reported as “Not Active”.

On to `COc1ccc(CCN2CCC(Nc3nc4ccccc4n3Cc3ccc(F)cc3)CC2)cc1` [ASTEMIZOLE], for which the IC50 result is “Not Active”.

Take `CN(C)CCCN1c2ccccc2CCc2ccc(Cl)cc21` [CLOMIPRAMINE]: the concentration for half-maximal inhibition (IC50) result is “Not Active”.

The next data set deals with T2, 5-hydroxytryptamine receptor 1A (Rattus norvegicus, UniProt P19327).
T2 sequence (P19327 whole entry): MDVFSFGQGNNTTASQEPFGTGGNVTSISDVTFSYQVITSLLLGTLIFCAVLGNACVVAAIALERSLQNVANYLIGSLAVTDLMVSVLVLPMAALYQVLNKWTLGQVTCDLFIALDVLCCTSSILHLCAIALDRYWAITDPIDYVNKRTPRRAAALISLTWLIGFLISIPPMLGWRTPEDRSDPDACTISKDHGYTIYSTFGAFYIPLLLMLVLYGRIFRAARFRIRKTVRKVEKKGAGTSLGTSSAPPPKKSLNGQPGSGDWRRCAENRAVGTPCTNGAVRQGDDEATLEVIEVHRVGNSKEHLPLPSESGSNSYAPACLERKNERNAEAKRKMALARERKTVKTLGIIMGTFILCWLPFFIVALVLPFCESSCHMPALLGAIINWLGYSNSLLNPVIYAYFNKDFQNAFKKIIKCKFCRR
Experiment: not given
It counts as cell membranes, CHO-K1, Membrane. The settings on record: cho-k1.
For `COC(=O)C1=C(C)NC(C)=C(C(=O)OC)C1c1ccccc1[N+](=O)[O-]` [NIFEDIPINE], the IC50 result is on record as “Not Active”.

On to `CC(C)(O)c1ccccc1CC[C@@H](SCC1(CC(=O)O)CC1)c1cccc(/C=C/c2ccc3ccc(Cl)cc3n2)c1` [MONTELUKAST], for which the IC50 result is given as “Not Active”.

Regarding `CN(C)CCCN1c2ccccc2CCc2ccc(Cl)cc21` [CLOMIPRAMINE], the IC50 result is “Not Active”.

The same data set, now with this note: read-out: IC50.
Turning to `CN1CCN2c3ccccc3Cc3ccccc3C2C1` (centres undefined) [MIANSERIN], the concentration for half-maximal inhibition (IC50) is 872 nM.

Regarding `Clc1ccccc1C(c1ccccc1)(c1ccccc1)n1ccnc1` [CLOTRIMAZOLE], the IC50 was determined as 17700 nM.

Take `COc1ccc(CCN2CCC(Nc3nc4ccccc4n3Cc3ccc(F)cc3)CC2)cc1` [ASTEMIZOLE]: the IC50 was 767 nM.

The data set is the same for the next values; noted with them: read-out: Ki.
Take `CN1CCN2c3ccccc3Cc3ccccc3C2C1` (centres undefined) [MIANSERIN]: the Ki came to 498 nM.

As for `Clc1ccccc1C(c1ccccc1)(c1ccccc1)n1ccnc1` [CLOTRIMAZOLE], the inhibition constant (Ki) is 10100 nM.

`COc1ccc(CCN2CCC(Nc3nc4ccccc4n3Cc3ccc(F)cc3)CC2)cc1` [ASTEMIZOLE]: the inhibition constant Ki was determined as 438 nM.

Test system in the next data set: not listed separately
Kind of data set: DRUGMATRIX: Imidazoline I2, Central radioligand binding (ligand: [3H] Idazoxan). It counts as cell membranes, Rattus norvegicus, Wistar, Cerebral cortex, Membrane. The settings on record: Not Active = under 50% inhibition at 10 µM.
Turning to `COC(=O)C1=C(C)NC(C)=C(C(=O)OC)C1c1ccccc1[N+](=O)[O-]` [NIFEDIPINE], the half-inhibitory concentration (IC50) entry is reported as “Not Active” and the Ki entry is listed as “Not Active”.

The same data set, now with this note: Not Active = under 50% inhibition at 10 µM; read-out: IC50.
Take `COC(=O)[C@@H]1[C@H]2C[C@H]3c4[nH]c5ccccc5c4CCN3C[C@@H]2CC[C@@H]1O` [YOHIMBINE]: the IC50 stood at 157 nM.

Staying with this data set, now noted: Not Active = under 50% inhibition at 10 µM; read-out: Ki.
With `COC(=O)[C@@H]1[C@H]2C[C@H]3c4[nH]c5ccccc5c4CCN3C[C@@H]2CC[C@@H]1O` [YOHIMBINE], the Ki came out at 105 nM.

A further data set deals with T3, Cytochrome P450 2A6 (Homo sapiens, UniProt P11509).
T3 sequence (P11509 whole entry): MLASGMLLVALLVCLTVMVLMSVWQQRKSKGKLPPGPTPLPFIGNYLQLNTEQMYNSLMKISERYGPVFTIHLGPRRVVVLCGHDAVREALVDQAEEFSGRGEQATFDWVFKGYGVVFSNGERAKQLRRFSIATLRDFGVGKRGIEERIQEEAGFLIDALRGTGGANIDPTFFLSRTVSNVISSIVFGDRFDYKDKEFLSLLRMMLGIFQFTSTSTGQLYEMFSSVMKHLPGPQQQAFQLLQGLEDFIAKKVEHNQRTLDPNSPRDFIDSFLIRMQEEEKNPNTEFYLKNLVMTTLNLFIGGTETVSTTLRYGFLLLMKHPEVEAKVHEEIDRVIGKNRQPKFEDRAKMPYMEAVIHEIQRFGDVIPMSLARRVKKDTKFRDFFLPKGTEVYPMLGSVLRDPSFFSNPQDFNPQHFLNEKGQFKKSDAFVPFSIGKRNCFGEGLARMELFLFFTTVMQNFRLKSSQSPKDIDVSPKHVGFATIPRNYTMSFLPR
Experiment: not given
The settings on record: bti-tn-5b1-4.
Regarding `CN1CCN2c3ccccc3Cc3ccccc3C2C1` (centres undefined) [MIANSERIN], the 50% inhibitory concentration (IC50) result is “Not Active” and the Ki result is given as “Not Active”.

As for `Clc1ccccc1C(c1ccccc1)(c1ccccc1)n1ccnc1` [CLOTRIMAZOLE], the IC50 result was “Not Active” and the Ki result is recorded as “Not Active”.

For `CC(C)(O)c1ccccc1CC[C@@H](SCC1(CC(=O)O)CC1)c1cccc(/C=C/c2ccc3ccc(Cl)cc3n2)c1` [MONTELUKAST], the IC50 entry is “Not Active” and the Ki entry is on record as “Not Active”.

With `COc1ccc(CCN2CCC(Nc3nc4ccccc4n3Cc3ccc(F)cc3)CC2)cc1` [ASTEMIZOLE], the IC50 entry is recorded as “Not Active” and the Ki result was “Not Active”.

Turning to `CN(C)CCCN1c2ccccc2CCc2ccc(Cl)cc21` [CLOMIPRAMINE], the half-maximal inhibitory concentration (IC50) entry was “Not Active” and the Ki entry is on record as “Not Active”.

Test system in a further data set: not listed separately
Kind of data set: DRUGMATRIX: Purinergic P2X radioligand binding (ligand: [3H] alpha, beta-Methylene-ATP). The settings on record: Not Active = under 50% inhibition at 10 µM. Type of data set: cell membranes, Oryctolagus cuniculus, New Zealand albino, Urinary bladder, Membrane.
In the case of `COC(=O)C1=C(C)NC(C)=C(C(=O)OC)C1c1ccccc1[N+](=O)[O-]` [NIFEDIPINE], the concentration for half-maximal inhibition (IC50) entry was “Not Active” and the Ki entry is on record as “Not Active”.

Turning to `COC(=O)[C@@H]1[C@H]2C[C@H]3c4[nH]c5ccccc5c4CCN3C[C@@H]2CC[C@@H]1O` [YOHIMBINE], the IC50 entry is “Not Active” and the inhibition constant Ki entry is recorded as “Not Active”.

A further data set concerns the target T4, Vasoactive intestinal polypeptide receptor 1 (Homo sapiens, UniProt P32241). Note: in other assays of this panel Not Active means under 50% inhibition at 10 µM.
T4 sequence (P32241 whole entry): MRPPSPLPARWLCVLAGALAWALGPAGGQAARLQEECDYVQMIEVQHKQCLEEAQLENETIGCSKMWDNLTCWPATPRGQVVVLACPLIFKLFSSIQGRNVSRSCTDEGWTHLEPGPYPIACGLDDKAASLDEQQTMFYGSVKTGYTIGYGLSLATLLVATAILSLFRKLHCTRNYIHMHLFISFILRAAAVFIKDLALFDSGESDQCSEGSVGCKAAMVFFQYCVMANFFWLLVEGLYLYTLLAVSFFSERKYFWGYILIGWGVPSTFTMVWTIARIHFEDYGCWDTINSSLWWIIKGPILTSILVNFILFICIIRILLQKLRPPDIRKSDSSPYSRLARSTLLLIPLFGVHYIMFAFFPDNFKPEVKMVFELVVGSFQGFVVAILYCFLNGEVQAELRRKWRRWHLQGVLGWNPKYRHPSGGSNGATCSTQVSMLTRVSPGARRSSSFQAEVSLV
Experiment: not given
Type of data set: cell membranes, Membrane. The settings on record: ht-29.
In the case of `COC(=O)C1=C(C)NC(C)=C(C(=O)OC)C1c1ccccc1[N+](=O)[O-]` [NIFEDIPINE], the IC50 result was “Not Active”.

`CN1CCN2c3ccccc3Cc3ccccc3C2C1` (centres undefined) [MIANSERIN]: the 50% inhibitory concentration (IC50) entry is recorded as “Not Active”.

`Clc1ccccc1C(c1ccccc1)(c1ccccc1)n1ccnc1` [CLOTRIMAZOLE]: the IC50 result was “Not Active”.

For the compound `CC(C)(O)c1ccccc1CC[C@@H](SCC1(CC(=O)O)CC1)c1cccc(/C=C/c2ccc3ccc(Cl)cc3n2)c1` [MONTELUKAST], the half-inhibitory concentration (IC50) entry is “Not Active”.

With `COC(=O)[C@@H]1[C@H]2C[C@H]3c4[nH]c5ccccc5c4CCN3C[C@@H]2CC[C@@H]1O` [YOHIMBINE], the IC50 result is “Not Active”.

As for `COc1ccc(CCN2CCC(Nc3nc4ccccc4n3Cc3ccc(F)cc3)CC2)cc1` [ASTEMIZOLE], the IC50 entry was “Not Active”.

On to `CN(C)CCCN1c2ccccc2CCc2ccc(Cl)cc21` [CLOMIPRAMINE], for which the IC50 result is recorded as “Not Active”.
